SMILES strings stand for the structures. Where two headings read alike, the source gives them in different places.

Results on 14 compounds are retold here after US9676704B2, “Pesticidal compositions and processes related thereto” (Dow AgroSciences LLC, priority 2014, dated 2017).

For one data set, the system named is Beet Armyworm (BAW). The experiment in a line: Bioassays on BAW, 128-well diet tray assay. The format is in vivo. To be noted: Spodoptera exigua; for mortality at 50 µg/cm2: 168 h, read-out: BAW % Control (or Mortality) rating; for mortality at 0.05 µg/cm2: 0.05 μg/cm^2; for mortality at 0.05 µg/cm2 / mortality at 0.5 µg/cm2 / mortality at 5 µg/cm2: read-out: BAW Percent control (or mortality); for mortality at 0.5 µg/cm2: 0.5 μg/cm^2; for mortality at 5 µg/cm2: 5 μg/cm^2. The method, then:
Bioassays on BAW were conducted using a 128-well diet tray assay. one to five second instar BAW larvae were placed in each well (3 mL) of the diet tray that had been previously filled with 1 mL of artificial diet to which 50 μg/cm^2 of the test compound (dissolved in 50 μL of 90:10 acetone-water mixture) had been applied (to each of eight wells) and then allowed to dry. Trays were covered with a clear self-adhesive cover, and held at 25° C., 14:10 light-dark for five to seven days. Percent mortality was recorded for the larvae in each well; activity in the eight wells was then averaged. The results are indicated in the tables entitled “Table ABC: Assay Results (F)”, “Table ABCD: Assay Results (C)”, and “Table ABCDE: Assay Results (P)” (See Table Section).
(§1) Bioassays on BAW and CL were conducted according to the procedures outlined in Example A: Bioassays on Beet Armyworm (“BAW”) and Cabbage Looper (“CL”) using the following concentrations: 5, 0.5, and 0.05 μg/cm^2.

For data set [1], the system named is Yellow Fever Mosquito (YFM). The format is in vivo, Aedes aegypti. Particulars: 15 μL of diluted 4000 ppm master solution per well, about 1 day-old larvae, 3 days. As to the method: Master plates containing 400 μg of a molecule dissolved in 100 μL of dimethyl sulfoxide (DMSO) (equivalent to a 4000 ppm solution) are used. A master plate of assembled molecules contains 15 μL per well. To this plate, 135 μL of a 90:10 water:acetone mixture is added to each well. A robot (Biomek® NXP Laboratory Automation Workstation) is programmed to dispense 15 μL aspirations from the master plate into an empty 96-well shallow plate (“daughter” plate). There are 6 reps (“daughter” plates) created per master. The created daughter plates are then immediately infested with YFM larvae. The day before plates are to be treated, mosquito eggs are placed in Millipore water containing liver powder to begin hatching (4 g. into 400 mL). After the daughter plates are created using the robot, they are infested with 220 μL of the liver powder/larval mosquito mixture (about 1 day-old larvae). After plates are infested with mosquito larvae, a non-evaporative lid is used to cover the plate to reduce drying. Plates are held at room temperature for 3 days prior to grading. After 3 days, each well is observed and scored based on mortality. The results are indicated in the table entitled “Table ABC: Assay Results (F)” and “Table ABCD: Assay Results (C)” (See Table Section). Pesticidally Acceptable Acid Addition Salts, Salt Derivatives, Solvates, Ester Derivatives, Polymorphs, Isotopes and Radionuclides

For the next data set, the system named is Cabbage Looper (CL). The experiment in a line: Bioassays on CL, 128-well diet tray assay. It is filed as in vivo. Particulars: Trichoplusia ni; for mortality at 50 µg/cm2: 168 h, read-out: CL % Control (or Mortality) rating; for mortality at 0.05 µg/cm2: 0.05 μg/cm^2; for mortality at 0.05 µg/cm2 / mortality at 0.5 µg/cm2 / mortality at 5 µg/cm2: read-out: CL Percent control (or mortality); for mortality at 0.5 µg/cm2: 0.5 μg/cm^2; for mortality at 5 µg/cm2: 5 μg/cm^2. The method, then: Bioassays on CL were conducted using a 128-well diet tray assay. One to five second instar CL larvae were placed in each well (3 mL) of the diet tray that had been previously filled with 1 mL of artificial diet to which 50 μg/cm^2 of the test compound (dissolved in 50 μL of 90:10 acetone-water mixture) had been applied (to each of eight wells) and then allowed to dry. Trays were covered with a clear self-adhesive cover, and held at 25° C., 14:10 light-dark for five to seven days. Percent mortality was recorded for the larvae in each well; activity in the eight wells was then averaged. The results are indicated in the table entitled “Table ABC: Assay Results (F)”, “Table ABCD: Assay Results (C)”, and “Table ABCDE: Assay Results (P)” (See Table Section).
as §1

[2] abbreviates: 50 μg/cm^2 on artificial diet, second instar larvae, five to seven days, 25° C.

With `CC(CC(=O)N[C@@H](C)NC(=O)c1ccc(/C=C/C(c2cc(Cl)c(Cl)c(Cl)c2)C(F)(F)F)cc1C(F)(F)F)C(F)(F)F` (stereo partly drawn) [Compound F16, 4-((E)-4,4,4-Trifluoro-3-(3,4,5-trichlorophenyl)but-1-en-1-yl)-N-((1R)-1-(4,4,4-trifluoro-3-methylbutanamido)ethyl)-2-(trifluoromethyl)benzamide], the mortality at 50 µg/cm2 with Beet Armyworm (BAW) (setting [2]) and in the data set with Cabbage Looper (CL) (setting [2]) was 50 to 100% throughout. For the same compound, the “YFM % Control (or Mortality) rating” value in data set [1] is listed as “A (80-100)”.
As to `C[C@H](NC(=O)CCC(C)(C)C)NC(=O)c1ccc(/C=C/C(c2cc(Cl)c(Cl)c(Cl)c2)C(F)(F)F)cc1C(F)(F)F` (stereo partly drawn) [Compound F17, N—((R)-1-(4,4-Dimethylpentanamido)ethyl)-4-((E)-4,4,4-trifluoro-3-(3,4,5-trichlorophenyl)but-1-en-1-yl)-2-(trifluoromethyl)benzamide], the mortality at 50 µg/cm2 in the data set on Beet Armyworm (BAW) (setting [2]) and in the data set on Cabbage Looper (CL) (setting [2]) was 50 to 100% each time. For the same compound, the “YFM % Control (or Mortality) rating” value in data set [1] is “A (80-100)”.
In the case of `Cc1cc(/C=C/C(c2cc(Br)cc(Br)c2)C(F)(F)F)ccc1C(=O)N[C@H](C)NC(=O)CC(F)(F)F` (stereo partly drawn) [Compound P7, 4-((E)-3-(3,5-Dibromophenyl)-4,4,4-trifluorobut-1-en-1-yl)-2-methyl-N—((R)-1-(3,3,3-trifluoropropanamido)ethyl)benzamide], the mortality at 50 µg/cm2 in the data set on Beet Armyworm (BAW) (setting [2]) and with Cabbage Looper (CL) (setting [2]) was 50 to 100% in each case. For the same compound, the “YFM % Control (or Mortality) rating” value in data set [1] is “A (80-100)”.
Take `C[C@H](NC(=O)CC(F)(F)F)NC(=O)c1ccc(/C=C/C(c2cc(Cl)c(Cl)c(Cl)c2)C(F)(F)F)cc1Br` (stereo partly drawn) [Compound P24]: the mortality – broadly, the percentage killed – at 50 µg/cm2 in the data set with Beet Armyworm (BAW) (setting [2]) fell in the range of 50 to 100%. Further, in the data set on Beet Armyworm (BAW), the mortality at 0.05 µg/cm2 is 0%, the mortality at 0.5 µg/cm2 was found to be 7% and the mortality at 5 µg/cm2 amounted to 87%. Further, the “YFM % Control (or Mortality) rating” value in data set [1] was “D (No activity noticed in this bioassay)”. In the data set with Cabbage Looper (CL) (setting [2]), the mortality at 50 µg/cm2 was 50 to 100%. Also, in the data set on Cabbage Looper (CL), the mortality at 0.05 µg/cm2 came to 6%, the mortality at 0.5 µg/cm2 is 19% and the mortality at 5 µg/cm2 was determined as 100%.
On to `CCCCCC(=O)N[C@@H](C)NC(=O)c1ccc(/C=C/C(c2cc(Cl)c(Cl)c(Cl)c2)C(F)(F)F)cc1C(F)(F)F` (stereo partly drawn) [Compound F3, N—((R)-1-hexanamidoethyl)-4-((E)-4,4,4-trifluoro-3-(3,4,5-trichlorophenyl)but-1-en-1-yl)-2-(trifluoromethyl)benzamide], for which the mortality at 50 µg/cm2 in the data set on Beet Armyworm (BAW) (setting [2]) and in the data set with Cabbage Looper (CL) (setting [2]) was 50 to 100% in each case. Further, the “YFM % Control (or Mortality) rating” value in data set [1] is recorded as “A (80-100)”.
In the case of `C[C@H](NC(=O)CC(F)(F)F)NC(=O)c1ccc(/C=C/C(c2cc(Br)cc(Br)c2)C(F)(F)F)cc1C(F)(F)F` (stereo partly drawn) [Compound P3, 4-((E)-3-(3,5-Dibromophenyl)-4,4,4-trifluorobut-1-en-1-yl)-2-(trifluoromethyl)-N—((R)-1-(3,3,3-trifluoropropanamido)ethyl)benzamide], the mortality at 50 µg/cm2 with Beet Armyworm (BAW) (setting [2]) and with Cabbage Looper (CL) (setting [2]) was 50 to 100% each time. Also, the “YFM % Control (or Mortality) rating” value in data set [1] is on record as “B (More than 0-Less than 80)”.
Regarding `C[C@H](NC(=O)CC(F)(F)F)NC(=O)c1ccc(/C=C/C(c2cc(Br)c(Cl)c(Br)c2)C(F)(F)F)cc1C(F)(F)F` (stereo partly drawn) [Compound P2, 4-((E)-3-(3,5-Dibromo-4-chlorophenyl)-4,4,4-trifluorobut-1-en-1-yl)-2-(trifluoromethyl)-N—((R)-1-(3,3,3-trifluoropropanamido)ethyl)benzamide], the mortality at 50 µg/cm2 with Beet Armyworm (BAW) (setting [2]) and with Cabbage Looper (CL) (setting [2]) was 50 to 100% throughout. Also, the “YFM % Control (or Mortality) rating” value in data set [1] is “A (80-100)”.
Take `CN(NC(=O)c1ccc(/C=C/C(c2cc(Cl)c(Cl)c(Cl)c2)C(F)(F)F)cc1C(F)(F)F)C(=O)OC(C)(C)C` (stereo not drawn) [Compound C116, (E)-tert-butyl 1-methyl-2-(4-(4,4,4-trifluoro-3-(3,4,5-trichlorophenyl)but-1-en-1-yl)-2-(trifluoromethyl)benzoyl)hydrazinecarboxylate]: the mortality at 50 µg/cm2 in the data set on Beet Armyworm (BAW) and with Cabbage Looper (CL) was 50 to 100% in each case. In data set [1], the “YFM % Control (or Mortality) rating” value is recorded as “A (80-100)”.
On to `C[C@@H](NC(=O)c1ccc(/C=C/C(c2cc(Cl)c(Cl)c(Cl)c2)C(F)(F)F)cc1C(F)(F)F)NC(=O)C1(C#N)CC1` (stereo partly drawn) [Compound F14, N—((S)-1-(1-cyanocyclopropanecarboxamido)ethyl)-4-((E)-4,4,4-trifluoro-3-(3,4,5-trichlorophenyl)but-1-en-1-yl)-2-(trifluoromethyl)benzamide], for which the mortality at 50 µg/cm2 in the data set on Beet Armyworm (BAW) (setting [2]) and in the data set with Cabbage Looper (CL) (setting [2]) was 50 to 100% in each case. The “YFM % Control (or Mortality) rating” value in data set [1] was “A (80-100)”.
As to `Cc1cc(/C=C/C(c2cc(Br)c(Cl)c(Br)c2)C(F)(F)F)ccc1C(=O)N[C@H](C)NC(=O)CC(F)(F)F` (stereo partly drawn) [Compound P6, 4-((E)-3-(3,5-Dibromo-4-chlorophenyl)-4,4,4-trifluorobut-1-en-1-yl)-2-methyl-N—((R)-1-(3,3,3-trifluoropropanamido)ethyl)benzamide], the mortality at 50 µg/cm2 in the data set with Beet Armyworm (BAW) (setting [2]) and in the data set with Cabbage Looper (CL) (setting [2]) was 50 to 100% in each case. In addition, in data set [1], the “YFM % Control (or Mortality) rating” value was “A (80-100)”.
As to `C[C@H](NC(=O)CCCC(F)(F)F)NC(=O)c1ccc(/C=C/C(c2cc(Cl)c(Cl)c(Cl)c2)C(F)(F)F)cc1C(F)(F)F` (stereo partly drawn) [Compound F10, 4-((E)-4,4,4-Trifluoro-3-(3,4,5-trichlorophenyl)but-1-en-1-yl)-2-(trifluoromethyl)-N—((R)-1-(5,5,5-trifluoropentanamido)ethyl)benzamide], the mortality at 50 µg/cm2 in the data set with Beet Armyworm (BAW) (setting [2]) and with Cabbage Looper (CL) (setting [2]) was 50 to 100% throughout. In addition, the “YFM % Control (or Mortality) rating” value in data set [1] was “A (80-100)”.
As to `C[C@H](NC(=O)CCC(F)(F)F)NC(=O)c1ccc(/C=C/C(c2cc(Cl)c(Br)c(Cl)c2)C(F)(F)F)cc1C(F)(F)F` (stereo partly drawn) [Compound P12, 4-((E)-3-(4-Bromo-3,5-dichlorophenyl)-4,4,4-trifluorobut-1-en-1-yl)-N—((R)-1-(4,4,4-trifluorobutanamido)ethyl)-2-(trifluoromethyl)benzamide], the mortality at 50 µg/cm2 in the data set with Beet Armyworm (BAW) (setting [2]) and with Cabbage Looper (CL) (setting [2]) was 50 to 100% each time. Further, in data set [1], the “YFM % Control (or Mortality) rating” value is given as “A (80-100)”.
As for `C[C@H](NC(=O)CCC(F)(F)F)NC(=O)c1ccc(/C=C/C(c2cc(Cl)c(Cl)c(Cl)c2)C(F)(F)F)cc1Br` (stereo partly drawn) [Compound P27, 2-Bromo-4-((E)-4,4,4-trifluoro-3-(3,4,5-trichlorophenyl)but-1-en-1-yl)-N—((R)-1-(4,4,4-trifluorobutanamido)ethyl)benzamide], in the data set on Beet Armyworm (BAW) (setting [2]), the mortality at 50 µg/cm2 was in the range of 50 to 100%. Moreover, in the data set on Beet Armyworm (BAW), the mortality at 0.05 µg/cm2 came out at 0%, the mortality at 0.5 µg/cm2 was found to be 0% and the mortality at 5 µg/cm2 worked out at 7%. Also, the “YFM % Control (or Mortality) rating” value in data set [1] was “B (More than 0-Less than 80)”. Moreover, the mortality at 50 µg/cm2 in the data set on Cabbage Looper (CL) (setting [2]) was in the range of 50 to 100%. Besides, in the data set on Cabbage Looper (CL), the mortality at 0.05 µg/cm2 is 0%, the mortality at 0.5 µg/cm2 stood at 7% and the mortality at 5 µg/cm2 turned out to be 100%.
As for `C[C@H](NC(=O)CCC(F)(F)F)NC(=O)c1ccc(/C=C/C(c2cc(Br)cc(Br)c2)C(F)(F)F)cc1C(F)(F)F` (stereo partly drawn) [Compound P11, 4-((E)-3-(3,5-Dibromophenyl)-4,4,4-trifluorobut-1-en-1-yl)-N—((R)-1-(4,4,4-trifluorobutanamido)ethyl)-2-(trifluoromethyl)benzamide], the mortality at 50 µg/cm2 with Beet Armyworm (BAW) (setting [2]) and in the data set on Cabbage Looper (CL) (setting [2]) was 50 to 100% throughout. Also, in data set [1], the “YFM % Control (or Mortality) rating” value is recorded as “A (80-100)”.
